Experimental findings from paper PMC11864979, “First-in-class ultralong-target-residence-time p38α inhibitors as a mitosis-targeted therapy for colorectal cancer” (Nature Cancer, 2025) are described below.

Several values for one entry are separate records, joined by “and”; a condition that tells them apart may be missing. Equal entries are not always repeated.

The subject of experiment [1] is subcutaneous human PDO6 CRCs. Description: treatment of subcutaneous human PDO6 CRCs in CB17 Scid beige mice. The class given is in vivo, mouse.
Description: Subcutaneous injection, splenic seeding or cecum injection of organoids was performed in 8–10-week-old C57BL/6 N/Crl, Rag2^−/− (B6.Cg-Rag2^tm1.1Cgn/J), or CB17 Scid beige (CB17.Cg-Prkdc^scidLyst^bg-J/Crl) mice, obtained from Charles River. The organoids were dissociated into single cells, washed with PBS and injected in a 1:1 mixture of PBS and Matrigel. For murine organoids, 1 × 10^5 cells were injected into the left and right flanks or the spleen capsule and 2 × 10^6 cells were injected into the cecum wall. For human organoids, 4 × 10^5 cells were injected into the flanks of CB17 Scid beige mice. For splenic seeding and cecum injection, mice were anaesthetized using ketamine (100 mg kg^−1, intraperitoneally) and xylazin (10 mg/kg, intraperitoneally) in NaCl and a small laparotomy below the thorax was performed. Upon injection, the puncture region was washed with prewarmed H2O. Within the first week after operation, the mice were treated with the analgesics carprofen and metamizol. The maximum size of individual tumor nodules permitted by the regional authority of the state of Baden-Wuerttemberg (Regierungspraesidium Tübingen: subcutaneous tumor nodules, 1 cm; other tumor nodules, 0.5 cm) was not exceeded.
No mice were excluded during treatment studies. […] GFP imaging of tumors was performed using a Hamamatsu imaging system.
Experiment [2] addresses T1, 340 wild-type kinases (Homo sapiens, UniProt Q9NZJ5).
T1 construct: purchased Reaction Biology Europe
T1 sequence (Q9NZJ5 30-1116): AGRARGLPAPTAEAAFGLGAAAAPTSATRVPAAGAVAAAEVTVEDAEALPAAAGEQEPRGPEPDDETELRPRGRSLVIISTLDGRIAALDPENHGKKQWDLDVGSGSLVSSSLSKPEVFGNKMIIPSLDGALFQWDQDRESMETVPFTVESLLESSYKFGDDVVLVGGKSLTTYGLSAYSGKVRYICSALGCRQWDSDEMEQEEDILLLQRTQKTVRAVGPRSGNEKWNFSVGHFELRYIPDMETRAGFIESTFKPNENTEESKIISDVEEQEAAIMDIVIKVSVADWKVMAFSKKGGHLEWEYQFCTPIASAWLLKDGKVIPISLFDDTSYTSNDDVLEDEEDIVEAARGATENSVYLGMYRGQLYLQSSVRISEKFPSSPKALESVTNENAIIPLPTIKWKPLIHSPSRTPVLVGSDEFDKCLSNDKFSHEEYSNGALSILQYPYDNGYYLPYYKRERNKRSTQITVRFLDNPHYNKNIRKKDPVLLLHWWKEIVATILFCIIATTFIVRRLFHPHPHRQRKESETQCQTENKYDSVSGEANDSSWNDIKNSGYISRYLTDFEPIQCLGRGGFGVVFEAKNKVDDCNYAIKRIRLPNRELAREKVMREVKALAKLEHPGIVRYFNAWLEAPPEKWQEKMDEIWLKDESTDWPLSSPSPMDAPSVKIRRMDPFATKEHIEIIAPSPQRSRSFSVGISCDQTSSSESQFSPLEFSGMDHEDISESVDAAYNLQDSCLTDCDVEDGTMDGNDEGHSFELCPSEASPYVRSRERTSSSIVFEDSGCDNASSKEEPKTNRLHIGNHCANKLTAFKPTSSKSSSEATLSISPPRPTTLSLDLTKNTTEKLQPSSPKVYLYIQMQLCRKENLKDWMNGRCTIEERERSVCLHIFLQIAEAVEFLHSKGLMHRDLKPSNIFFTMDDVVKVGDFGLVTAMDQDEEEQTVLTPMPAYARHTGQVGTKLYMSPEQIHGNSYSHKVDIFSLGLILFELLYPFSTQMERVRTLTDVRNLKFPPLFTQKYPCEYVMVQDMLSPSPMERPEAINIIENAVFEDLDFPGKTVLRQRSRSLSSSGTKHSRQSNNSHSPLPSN
Description: selectivity profiling in a panel of 340 wild-type kinases (Reaction Biology Europe). It counts as binding. The note with it: 0.2 µM 2015; read-out: EIF2AK3 residual activity. An excerpt:
(§1) Potential interactions between 2015 and 340 wild-type kinases were checked by means of a competition binding assay performed by Reaction Biology Europe (Supplementary Table 15).

For experiment [3], the target named is T2, 340 wild-type kinases (Homo sapiens, UniProt P36896).
T2 construct: purchased Reaction Biology Europe
T2 sequence (P36896 24-505): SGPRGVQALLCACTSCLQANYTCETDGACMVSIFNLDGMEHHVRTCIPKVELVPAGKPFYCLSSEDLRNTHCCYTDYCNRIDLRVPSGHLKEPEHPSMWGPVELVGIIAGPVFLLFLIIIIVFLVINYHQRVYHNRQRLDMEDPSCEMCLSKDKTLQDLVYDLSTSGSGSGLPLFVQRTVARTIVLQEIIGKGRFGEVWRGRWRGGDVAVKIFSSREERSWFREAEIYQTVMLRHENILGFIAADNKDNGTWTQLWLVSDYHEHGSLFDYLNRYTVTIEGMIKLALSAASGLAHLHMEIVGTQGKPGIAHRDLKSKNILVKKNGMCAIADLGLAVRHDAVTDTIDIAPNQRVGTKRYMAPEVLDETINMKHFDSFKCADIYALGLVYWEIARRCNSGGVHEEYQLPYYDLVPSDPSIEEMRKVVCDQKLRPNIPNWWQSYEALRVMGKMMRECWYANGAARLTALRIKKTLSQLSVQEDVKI
The experiment is described as above. It counts as binding. As to conditions: 1 µM 2015; read-out: ACVR1B residual activity.
Description: as §1

Experiment [4] addresses T3, recombinant human active p38α protein, MK2 and Wee1 (Homo sapiens, UniProt Q16539).
T3 construct: purchased Abcam (p38α, MK2); Novus Biologicals (Wee1) ab271647; ab79910; H00007465-P01
Description: p38α–Wee1 kinase assay (western blot). It counts as biochemical. As to conditions: 1 µM. As for the experimental part:
Briefly, 200 ng of corresponding proteins were preincubated with 1 µM 2015 or DMSO in a kinase assay buffer (Abcam, ab189135; total volume, 100 µL) for 30 min at 37 °C. Kinase activity was induced with 20 µM ATP. Following a 30-min incubation at 37 °C, the reaction was stopped by protein inactivation (95 °C, 5 min in Laemmli buffer). The antibodies and dilutions for immunoblotting are listed in the Nature Portfolio Reporting Summary.

T3 sequence (Q16539 whole entry): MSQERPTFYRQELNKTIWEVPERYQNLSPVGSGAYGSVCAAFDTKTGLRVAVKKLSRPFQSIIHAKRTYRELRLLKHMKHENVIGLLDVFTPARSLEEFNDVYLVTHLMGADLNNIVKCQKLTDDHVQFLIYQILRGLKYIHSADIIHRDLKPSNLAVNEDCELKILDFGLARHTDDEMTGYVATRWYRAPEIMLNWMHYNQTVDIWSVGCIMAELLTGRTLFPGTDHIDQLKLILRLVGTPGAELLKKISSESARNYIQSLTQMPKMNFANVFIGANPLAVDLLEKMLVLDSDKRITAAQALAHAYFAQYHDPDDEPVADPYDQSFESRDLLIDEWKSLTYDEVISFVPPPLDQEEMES

On to `CNC(=O)c1ccc2c(c1)C(=O)c1ccc(Nc3ccc(F)c(NC(=O)C4CC4)c3)cc1CC2` [Compound 2015], for which, in experiment [1] (individual subcutaneous PDO6 tumors, treated 4 weeks), the Tumor weight was 25 g and 16 g and 4 g and 32 g. In addition, the “tumor size of PDO6-derived CRCs (in words)” value in experiment [1] (treated for 4 weeks) is given as “strong reduction in tumor size”. In addition, the remaining activity at 0.2 µM on 340 wild-type kinases [2] was 93.3%. Moreover, the remaining activity at 1 µM at 340 wild-type kinases [3] amounted to 86.1%. Besides, the “p38α–MK2-mediated phosphorylation of Wee1 at S642 (in words)” value in experiment [4] is reported as “blocked”.
